Among the data in US7265125B2, “Neuropeptide Y antagonists” (Hoffmann-La Roche Inc., priority 2000, dated 2007) are melting point and IC50 values, retold here.

Series [1] concerns the target T1, mouse NPY5-receptor (mNPY5) (Mus musculus, UniProt O70342).
T1 construct: The full-length cDNA encoding the mouse NPY5 (mNPY5) receptor was amplified from mouse brain cDNA; expressed in transfected cells; membrane preparation
T1 sequence (O70342 1-466): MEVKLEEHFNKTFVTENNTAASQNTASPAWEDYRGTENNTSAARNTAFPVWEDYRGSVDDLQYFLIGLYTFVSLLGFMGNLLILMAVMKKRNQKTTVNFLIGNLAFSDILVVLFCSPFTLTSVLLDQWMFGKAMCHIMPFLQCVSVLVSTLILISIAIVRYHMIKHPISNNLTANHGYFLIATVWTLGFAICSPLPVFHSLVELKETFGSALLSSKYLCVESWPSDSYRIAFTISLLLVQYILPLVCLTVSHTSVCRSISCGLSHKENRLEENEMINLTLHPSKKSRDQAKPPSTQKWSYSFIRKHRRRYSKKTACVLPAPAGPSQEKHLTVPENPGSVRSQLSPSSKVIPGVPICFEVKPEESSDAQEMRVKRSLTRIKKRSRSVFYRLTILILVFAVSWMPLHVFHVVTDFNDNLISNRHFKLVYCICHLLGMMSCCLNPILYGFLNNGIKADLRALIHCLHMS
Nature of the series: Radioligand competition binding. Particulars: HEK293 membranes expressing recombinant mNPY5; 100 pM [125I]labelled peptide YY; 1 h at 22° C. The source says:
The full-length cDNA encoding the mouse NPY5 (mNPY5) receptor was amplified from mouse brain cDNA using specific primers, designed based on the published sequence, and Pfu DNA-Polymerase (Stratagene). The amplification product was subcloned into the mammalian expression vector pcDNA3 using Eco RI and XhoI restriction sites. Positive clones were sequenced and one clone, encoding the published sequence was selected for generation of stable cell clones.
Human embryonic kidney 293 (HEK293) cells were transfected with 10 μg mNPY5 DNA using the lipofectamine reagent (Gibco BRL) according to the manufacturer's instruction. Two days after transfection, geneticin selection (1 mg/ml) was initiated and several stable clones were isolated. One clone was further used for pharmacological characterization.
Human embryonic kidney 293 cells (HEK293), expressing recombinant mouse NPY5-receptor (mNPY5) were broken by three freeze/thawing cycles in hypotonic Tris buffer (5 mM, pH 7.4, 1 mM MgCl2), homogenized and centrifuged at 72,000×g for 15 min. The pellet was washed twice with 75 mM Tris buffer, pH 7.4, containing 25 mM MgCl2 and 250 mM sucrose, 0.1 mM phenylmethylsulfonylfluoride and 0.1 mM 1,10-pheneanthrolin, resuspended in the same buffer and stored in aliquots at −80° C. Protein was determined according to the method of Lowry using bovine serum albumine (BSA) as a standard. […]

Compound `Cc1cc(N2CCCCC2)c2ccc(-c3ccccc3)cc2n1` [Example 1.16, 2-methyl-7-phenyl-4-piperidin-1-yl-quinoline] yielded a melting point of 111 to 112 °C. Regarding `Cc1cc(N2CCCCC2)c2ccc(-c3ccc4[nH]ccc4c3)cc2n1` [Example 1.17, 7-(1H-Indol-5-yl)-2-methyl-4-piperidin-1-yl-quinoline], the IC50 in series [1] was 100 nM. On the same count and under the same terms, then `COc1ccc(-c2ccc3c(N4CCCC4)cc(C)nc3c2)cc1` [Example 1.6, 7-(4-methoxy-phenyl)-2-methyl-4-pyrrolidin-1-yl-quinoline], with 60 nM. `Cc1cc(N2CCCCC2)c2ccc(-c3cccs3)cc2n1` [Example 1.15, 2-methyl-4-piperidin-1-yl-7-thiophen-2-yl-quinoline] returned a melting point of 122 to 123 °C.

As usually defined, the melting point is the temperature of the solid-liquid transition. A word on the IC50: it is the midpoint of a concentration-inhibition curve.
